Experimental data: patent publication US12552824B2, “C-mannoside compounds useful for the treatment of urinary tract infections” (GLAXOSMITHKLINE INTELLECTUAL PROPERTY DEVELOPMENT LIMITED, priority 2018, dated 2026)

Assays:
[1] = molecular target: T1, FimH (Escherichia coli, UniProt Q1R2J4); assay type: cell-based; settings: concentration reducing bacterial agglutination of guinea pig red blood cells by greater than 90%; UTI89 bacteria;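 further: concentration in nM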
T1 construct: endogenous in cells; host or cells: E. coli UTI89 whole bacteria, agglutinating guinea pig red blood cells
Protocol: Hemagglutination Inhibition Assay (HAI)
The hemagglutination inhibition (HAI) assay was performed with UTI89 bacteria and guinea pig red blood cells, as previously described (S. J. Hultgren, W. R. Schwan, A. J. Schaeffer, J. L. Duncan Infect. Immun. 1986, 54, 613-620 and Jarvis, C.; Han, Z.; Kalas, V.; Klein, R.; Pinkner, J. S.; Ford, B.; Binkley, J.; Cusumano, C. K.; Cusumano, Z.; Mydock-McGrane, L.; Hultgren, S. J.; Janetka, J. W., ChemMedChem 2016, 11, 367-373).

[2] = Rat pharmacokinetics: IV infusion 1 mg/kg, then PO 5 mg/kg; blood and urine by LC-MS/MS; assay type: in vivo, Male Wistar Han rats; settings: for bioavailability: male, Wistar Han, oral bioavailability, ratio of dose-normalised AUC PO (5 mg/kg) and IV infusion (1 mg/kg); for bioavailability / AUC: whole blood; for Ue % po: percentage of oral dose (5 mg/kg) eliminated unchanged in urine; for AUC: area under blood concentration-time profile, PO 5 mg/kg, male Wistar Han rats, n = 3
Description: General Assays for Obtaining AUC Oral h*μm, % F, and Ue % PO Values
Male Wistar Han rats were purchased from Vital River Laboratory Animal Technology Co. Ltd (Beijing, China). The animals were approx. 6-8 weeks old with body weights of 200-300 g on the dosing date. The animals were housed in a 12-hour light/12-hour dark cycle environment and had free access to food and water. All animals were fed prior to dosing. Studies were approved by the Pharmaron Institutional Animal Care and Use Committee (IACUC).
Test article was administered as an intravenous infusion for 1 hour (1 mg/kg) at 5 mL/kg/h. After 48 h, animals received a single oral dose (5 mg/kg, free form) at a dose volume of 10 mL/kg, respectively. Blood samples were collected at various time points after IV infusion and PO administrations. Urine samples were collected at various time points after IV infusion and PO administrations.
Test article was dissolved in DMSO with vortexing and sonification to obtain a stock solution. An aliquot of the stock solution was mixed with 10% HP-β-CD in saline with vortexing to obtain a solution with concentration at 0.2 mg/mL of test article.
Test article was added into 1% Methyl Cellulose with vortexing and sonication to obtain a homogeneous suspension with concentration at 0.5 mg/mL of test article.
For IV infusion (1 mg/kg) administration, blood samples were collected from each animal at 0, 0.25, 0.5, 0.75, 1, 1.08, 1.25, 1.5, 1.75, 2, 3, 5, 8, 12, 24 hour post-dose.
For PO (5 mg/kg) administration, blood samples were collected from each animal at 0, 0.25, 0.5, 1, 1.5, 2, 3, 4, 6, 8, 12, 24 hour post-dose.
Blood samples (50 μL) were collected from each animal via jugular vein. These blood samples were placed into tubes containing K2EDTA. Whole blood was mixed with same volume of water and inverted several times. The blood samples were stored at −75±15° C. until analysis.
For IV infusion (1 mg/kg) administration, urine samples were collected from each animal at 0-4, 4-8, 8-12, 12-24 hour post-dose.
For PO (5 mg/kg) administration, urine samples were collected from each animal at 0-4, 4-8, 8-12, 12-24 hour post-dose.
Urine samples were collected continuously into containers maintained over dry ice at the intervals outlined below and stored at −80° C. prior to analysis.
55 μL of standards, 55 μL of QC samples or 55 μL of unknown samples (50 μL of blood or urine with 5 μL 50% acetonitrile) were mixed to 200 μL of acetonitrile containing IS (dexamethasone) to precipitate proteins. Then the samples were vortexed for 30 sec. After centrifugation at 4° C., 4700 rpm for 30 min, and 5 μL of the supernatant was injected into the LC-MS/MS system for quantitative analysis.
Test article blood and urine concentrations for each animal following IV infusion at 1 mg/kg and PO at 5 mg/kg were used to calculate pharmacokinetic parameters by employing a non-compartmental analysis (Phoenix™ WinNonlin® 7.0). The linear trapezoidal algorithm was used for AUC calculation.

| Compound | HAI titer EC > 90 [1] | further results |
| --- | --- | --- |
| Cc1cc(-c2cc(F)c(C)c(F)c2)ccc1[C@@H](O)[C@H]1O[C@H](CO)[C@@H](O)[C@H](O)[C@@H]1O [Example 1, (2R,3S,4S,5S,6R)-2-((R)-(3′,5′-Difluoro-3,4′-dimethyl-[1,1′-biphenyl]-4-yl)(hydroxy)methyl)-6-(hydroxymethyl)tetrahydro-2H-pyran-3,4,5-triol] | “++++” (<50 “++++”) | bioavailability [2]: 10 to 30%; Ue % po [2]: “++” (0.5 <= x <= 5%); AUC [2]: < 0.5 µM·h |
| Cc1cc(-c2cc(F)c(Cl)c(F)c2)ccc1[C@@H](O)[C@H]1O[C@H](CO)[C@@H](O)[C@H](O)[C@@H]1O [Example 2, (2R,3S,4S,5S,6R)-2-((R)-(4′-Chloro-3′,5′-difluoro-3-methyl-[1,1′-biphenyl]-4-yl)(hydroxy)methyl)-6-(hydroxymethyl)tetrahydro-2H-pyran-3,4,5-triol] | “++++” (<50 “++++”) | bioavailability [2]: 10 to 30%; Ue % po [2]: “++” (0.5 <= x <= 5%); AUC [2]: > 1 µM·h |
| Cc1cc(-c2cc(F)c(Br)c(F)c2)ccc1[C@@H](O)[C@H]1O[C@H](CO)[C@@H](O)[C@H](O)[C@@H]1O [Example 3, (2R,3S,4S,5S,6R)-2-((R)-(4′-Bromo-3′,5′-difluoro-3-methyl-[1,1′-biphenyl]-4-yl)(hydroxy)methyl)-6-(hydroxymethyl)tetrahydro-2H-pyran-3,4,5-triol] | “++++” (<50 “++++”) | bioavailability [2]: 10 to 30%; Ue % po [2]: “++” (0.5 <= x <= 5%); AUC [2]: > 1 µM·h |
| Cc1cc(-c2ccc(C(F)(F)F)c(C(F)(F)F)c2)ccc1[C@@H](O)[C@H]1O[C@H](CO)[C@@H](O)[C@H](O)[C@@H]1O [Example 67] | “++++” (<50 “++++”) | – |
| Cc1cc(-c2ccc([C@@H](O)[C@H]3O[C@H](CO)[C@@H](O)[C@H](O)[C@@H]3O)c(C)c2)cc(C(F)(F)F)c1 [Example 68] | “++++” (<50 “++++”) | – |
| COc1ccc(-c2ccc([C@@H](O)[C@H]3O[C@H](CO)[C@@H](O)[C@H](O)[C@@H]3O)c(C)c2)cc1C(F)(F)F [Example 69] | “++++” (<50 “++++”) | – |
| Cc1cc(-c2cc(F)cc(F)c2F)ccc1[C@@H](O)[C@H]1O[C@H](CO)[C@@H](O)[C@H](O)[C@@H]1O [Example 70] | “++++” (<50 “++++”) | – |
| COc1c(F)cc(-c2ccc([C@@H](O)[C@H]3O[C@H](CO)[C@@H](O)[C@H](O)[C@@H]3O)c(C)c2)cc1Cl [Example 71] | “++++” (<50 “++++”) | – |
| Cc1cc(-c2cccc(C(F)(F)F)c2)ccc1[C@@H](O)[C@H]1O[C@H](CO)[C@@H](O)[C@H](O)[C@@H]1O [Example 75] | “+++” (50-200 “+++”) | – |
| COc1cc(-c2ccc([C@@H](O)[C@H]3O[C@H](CO)[C@@H](O)[C@H](O)[C@@H]3O)c(C)c2)ccc1C(F)(F)F [Example 76] | “++++” (<50 “++++”) | – |
| Cc1cc(-c2cccc(F)c2)ccc1[C@@H](O)[C@H]1O[C@H](CO)[C@@H](O)[C@H](O)[C@@H]1O [Example 77] | “+++” (50-200 “+++”) | – |
| CCOc1ccc(-c2ccc([C@@H](O)[C@H]3O[C@H](CO)[C@@H](O)[C@H](O)[C@@H]3O)c(C)c2)cc1F [Example 81] | “++++” (<50 “++++”) | – |
| COc1cc(F)c(-c2ccc([C@@H](O)[C@H]3O[C@H](CO)[C@@H](O)[C@H](O)[C@@H]3O)c(C)c2)cc1F [Example 82] | “++++” (<50 “++++”) | – |
| Cc1cc(-c2ccc(CN(C)C)c(F)c2)ccc1[C@@H](O)[C@H]1O[C@H](CO)[C@@H](O)[C@H](O)[C@@H]1O [Example 83] | “++++” (<50 “++++”) | – |
| Cc1cc(-c2cc(C)c(C)c(F)c2)ccc1[C@@H](O)[C@H]1O[C@H](CO)[C@@H](O)[C@H](O)[C@@H]1O [Example 84] | “++++” (<50 “++++”) | – |
| Cc1cc(-c2cc(F)cc(C(F)F)c2)ccc1[C@@H](O)[C@H]1O[C@H](CO)[C@@H](O)[C@H](O)[C@@H]1O [Example 85] | “++++” (<50 “++++”) | – |
| Cc1cc(-c2cc(C(F)F)cc(C(F)F)c2)ccc1[C@@H](O)[C@H]1O[C@H](CO)[C@@H](O)[C@H](O)[C@@H]1O [Example 86] | “++++” (<50 “++++”) | – |

| Compound | HAI titer EC > 90 [1] | further results |
| --- | --- | --- |
| COc1cc(-c2ccc([C@@H](O)[C@H]3O[C@H](CO)[C@@H](O)[C@H](O)[C@@H]3O)c(C)c2)cc(F)c1C(F)(F)F [Example 87] | “++++” (<50 “++++”) | – |
| Cc1cc(-c2cc(C)c(F)c(F)c2)ccc1[C@@H](O)[C@H]1O[C@H](CO)[C@@H](O)[C@H](O)[C@@H]1O [Example 88] | “++++” (<50 “++++”) | – |
| Cc1cc(-c2cc(F)c(C(C)C)c(F)c2)ccc1[C@@H](O)[C@H]1O[C@H](CO)[C@@H](O)[C@H](O)[C@@H]1O [Example 89] | “++++” (<50 “++++”) | – |
| Cc1cc(-c2cc(OC(C)C)cc(C(F)(F)F)c2)ccc1[C@@H](O)[C@H]1O[C@H](CO)[C@@H](O)[C@H](O)[C@@H]1O [Example 90] | “+++” (50-200 “+++”) | – |
| CCCc1c(F)cc(-c2ccc([C@@H](O)[C@H]3O[C@H](CO)[C@@H](O)[C@H](O)[C@@H]3O)c(C)c2)cc1F [Example 92] | “++++” (<50 “++++”) | – |
| Cc1cc(-c2cc(F)c(OC(F)F)c(F)c2)ccc1[C@@H](O)[C@H]1O[C@H](CO)[C@@H](O)[C@H](O)[C@@H]1O [Example 96] | “++++” (<50 “++++”) | – |
| OC[C@H]1O[C@H]([C@H](O)c2ccc(-c3cc(F)c(F)c(F)c3)cc2C(F)(F)F)[C@@H](O)[C@@H](O)[C@@H]1O [Example 97] | “++++” (<50 “++++”) | – |
| Cc1cc(-c2ccc(F)cc2)ccc1[C@@H](O)[C@H]1O[C@H](CO)[C@@H](O)[C@H](O)[C@@H]1O [Example 98] | “+++” (50-200 “+++”) | – |
| Cc1cc(-c2ccc(Cl)cc2)ccc1[C@@H](O)[C@H]1O[C@H](CO)[C@@H](O)[C@H](O)[C@@H]1O [Example 99] | “+++” (50-200 “+++”) | – |
| Cc1cc(-c2ccc(C3CC3)cc2)ccc1[C@@H](O)[C@H]1O[C@H](CO)[C@@H](O)[C@H](O)[C@@H]1O [Example 100] | “+++” (50-200 “+++”) | – |
| COCc1c(F)cc(-c2ccc([C@@H](O)[C@H]3O[C@H](CO)[C@@H](O)[C@H](O)[C@@H]3O)c(C)c2)cc1F [Example 102] | “++++” (<50 “++++”) | – |
| C#Cc1c(F)cc(-c2ccc([C@@H](O)[C@H]3O[C@H](CO)[C@@H](O)[C@H](O)[C@@H]3O)c(C)c2)cc1F [Example 103] | “++++” (<50 “++++”) | – |
| Cc1cc(-c2cc(F)c(N(C)C)c(F)c2)ccc1[C@@H](O)[C@H]1O[C@H](CO)[C@@H](O)[C@H](O)[C@@H]1O [Example 104] | “++++” (<50 “++++”) | – |
| Cc1cc(-c2ccc(C(F)(F)F)cc2)ccc1[C@@H](O)[C@H]1O[C@H](CO)[C@@H](O)[C@H](O)[C@@H]1O [Example 105] | “+++” (50-200 “+++”) | – |
| COc1cc(-c2ccc([C@@H](O)[C@H]3O[C@H](CO)[C@@H](O)[C@H](O)[C@@H]3O)c(C)c2)cc(C(F)(F)F)c1F [Example 106] | “++++” (<50 “++++”) | – |
| Cc1cc(-c2cc(F)cc(N(C)C)c2)ccc1[C@@H](O)[C@H]1O[C@H](CO)[C@@H](O)[C@H](O)[C@@H]1O [Example 109] | “++++” (<50 “++++”) | – |
| Cc1cc(-c2cc(F)c(F)c(C(F)(F)F)c2)ccc1[C@@H](O)[C@H]1O[C@H](CO)[C@@H](O)[C@H](O)[C@@H]1O [Example 110] | “++++” (<50 “++++”) | – |
